# Experimental data as given in publication PMC10541456, “A phase I, single‐center, open‐label study to investigate the absorption, distribution, metabolism and excretion of encorafenib following a single oral dose of 100 mg [ ^14C] encorafenib in healthy male subjects” (Pharmacology Research & Perspectives, 2023).
# Experiments:
# [1] = Metabolite profiles in plasma (UPLC, radioactivity detection, MS); assay type: in vivo, human
# Description: To the thawed plasma samples (1.5 mL plasma/ time points) two volumes of ice‐cold acetonitrile:ethanol:acetic acid (90:10:0.1, v/v) were added, followed by vortex mixing (10 min) and sonication (10 min). After centrifugation, the supernatants (4.2 mL) were evaporated to near dryness under a gentle stream of nitrogen on a TurboVap LV (Zymark Corp.). The residues were reconstituted in 80 μL of methanol:water:acetic acid (50:50:0.1, v/v) and 45 μL were injected into the ultra‐performance liquid chromatography (UPLC) system with off‐line radioactivity detection.
# Characterization and quantification of the metabolites of encorafenib in select human plasma and excreta samples were performed by the Department of DMPK (Drug Metabolism and Pharmacokinetics) at the Novartis Institutes for Biomedical Research (East Hanover, NJ, USA) using liquid chromatography (LC) coupled to radioactivity detectors and mass spectrometers (MS).
# The analytical system consisted of a Waters ACQUITY UPLC system (Waters), equipped with a Phenomenex Luna PFP column (3 μm, 4.6 × 150 mm) (Phenomenex) and a guard column of the same phase, both maintained at a temperature of 30°C. The mobile phases consisted of 10 mM ammonium acetate containing 0.1% formic acid (v/v) (solvent A) and CH3CN (solvent B). The total run time was 80 min. A linear gradient elution program was used with a flow rate of 1 mL/min as described in Table 1.
# The UPLC effluent was split 4:1, with […] of the total flow introduced to the mass spectrometer for mass spectral analysis and the remaining flow used for radioactivity detection.
# For off‐line radioactivity detection, the eluant was collected into 96‐well Lumaplate (Packard Instrument Co) microplates using a Collect Pal fraction collector (Leap Technologies) with a collection time of 10 seconds per well. The LumaPlates were sealed after drying and counted for 10–50 min per well on a Packard Topcount microplate scintillation counter. The structural characterization of metabolites was carried out using the above UPLC profiling method coupled to a two‐channel Z‐spray (LockSprayTM) time‐of‐flight mass spectrometer (Synapt MS). Leucine enkephalin was used as the mass reference standard for exact mass measurements and was delivered via the second spray channel at a flow rate of 5 μL/minute. The mass spectrometer was operated at a resolution of ~10 000 m/ΔmFWHM with spectra being collected from 100 to 1000 amu. The ionization technique employed was positive electrospray. The sprayer voltage was kept at 3100 V and the sampling cone voltage was kept at a potential of 20 V. For the time‐of‐flight MS/MS experiments, trap energies of 25 to 45 eV and transfer energy of 15 eV were used with argon as the collision gas.
# All radioactivity data were transferred to Laura software (version 4.2.2.24, Lab Logic Ltd, UK) to generate and integrate radio‐chromatograms. Radioactive peaks for quantitative analysis were manually selected from the plots. The radioactivity in the region encompassing the beginning and end of the peak was summed. All further calculations were based on radioactivity.
# The percent of radioactivity (%RA) in a particular peak, Z, was calculated as follows in Equation (1): (1) %RAinZ=DPMin PeakZ/totalDPMinallintegrated peaksx100
# The concentration or amount of each component was calculated as % RA (expressed as a fraction) multiplied by the total concentration of radioactivity in plasma, or the percent of dose in the excreta.
# [2] = Stability in simulated gastric and intestinal fluid; assay type: in vitro ADME; settings: 37°C, relative to time = 0 h
# Description: Simulated gastric fluid (SGF) was generated by mixing 2.0 g of sodium chloride and 3.2 g of purified pepsin, which is derived from porcine stomach mucosa, with an activity of 800 to 2500 units per mg of protein, in 7.0 mL of hydrochloric acid and sufficient water to make 1000 mL. The final test solution has a pH of about 1.2. Simulated intestinal fluid (SIF) was generated by dissolving 6.8 g of monobasic potassium phosphate in 250 mL of water and adding 77 mL of 0.2 N sodium hydroxide and 500 mL of water. To this mixture, 10.0 g of pancreatin was added and the solution pH was adjusted with either 0.2 N sodium hydroxide or 0.2 N hydrochloric acid to a pH of 6.8 ± 0.1 and diluted with water to a final volume of 1000 mL. Encorafenib was dissolved in SGF (100 μM final encorafenib concentration) and incubated for 1 h or SIF (1 μM final encorafenib concentration) for 3 h. Dilutions are prepared in HPLC vials by combining 20 μL of the test compound in DMSO with 180 μL of the specified assay media. Separate dilutions are prepared for each time point per media. The media is mixed by repeated pipetting, vortexed and incubated at 37°C. At the specified time period and equal volume of cold ACN is added to the vial to precipitate the protein and quench any enzymatic activity. […] Stability is calculated as % remaining relative to the T = 0 peak area.
structure (smiles),measurement,setting,value
COC(=O)N[C@@H](C)CNc1nccc(-c2cn(C(C)C)nc2-c2cc(Cl)cc(NS(C)(=O)=O)c2F)n1 [encorafenib],Mean (range) Circulating Radioactivity in Plasma Based on AUC0-24,[1]; 100 mg oral [14C] encorafenib,4400 (2340–7140) ngEq/mL*h
same,Mean (range) Circulating Radioactivity in Plasma Based on AUC0-24 (%),[1]; M12.8 value is sum of M12.8 and M13.2,27.5%
same,Mean (range) Circulating Radioactivity in Plasma Based on AUC0-24 (%),"[1]; M12.8 value is sum of M12.8 and M13.2, listed as Encorafenib (LGX818)",27.5 (17.9–36.4) %
same,Percentage remaining in SIF with pancreatin,"[2]; 3-h incubation, 1 μM, pH 6.8",approximately 97%
same,Percentage remaining in SGF with pepsin,"[2]; 1 h incubation, 100 μM, pH about 1.2",approximately 101%
